Data published in patent US8916499B2, “Herbicidal compositions comprising 4-amino-3-chloro-5-fluoro-6-(4-chloro-2-fluoro-3-methoxyphenyl) pyridine-2-carboxylic acid or a derivative thereof and a protoporphyrinogen oxidase inhibitor” (Dow AgroSciences LLC, priority 2012, dated 2014).
Several values for one entry are separate records, joined by “and”; a condition that tells them apart may be missing. Equal entries are not always repeated.

Legend:
XANST = test: Pre-emergence soil-applied weed control, greenhouse (Example IV); format: in vivo, Xanthium strumarium L.
Description: Seeds or nutlets of the desired test plant species were planted in a soil matrix prepared by mixing a loam soil (32 percent silt, 23 percent clay, and 45 percent sand, with a pH of about 6.5 and an organic matter content of about 1.9 percent) and calcareous grit in an 80 to 20 ratio. The soil matrix was contained in plastic pots with a volume of 1 quart and a surface area of 83.6 square centimeters (cm^2).
Treatments consisted of the benzyl ester of 4-amino-3-chloro-5-fluoro-6-(4-chloro-2-fluoro-3-methoxy-phenyl)pyridine-2-carboxylic acid (compound A) formulated as an SC (suspension concentrate) and various herbicidal components alone and in combination. Forms of compound A were applied on an acid equivalent basis.
Other herbicidal components were applied on an acid equivalent or active ingredient basis and included the protoporphyrinogen oxidase (PPO)-inhibiting herbicides, flumioxazin formulated as Payload® and oxadiazon formulated as Ronstar® 50W.
Treatment requirements were calculated based upon the rates being tested, the concentration of active ingredient or acid equivalent in the formulation, and a 12 mL application volume at a rate of 187 L/ha.
For treatments comprised of formulated compounds, measured amounts of compounds were placed individually in 25 mL glass vials and diluted in a volume of 1.25% (v/v) Agri-Dex® crop oil concentrate (COC) to obtain 12× stock solutions. […] Application solutions were prepared by adding an appropriate amount of each stock solution (e.g., 1 mL) and diluted to the appropriate final concentrations with the addition of 10 mL of an aqueous mixture of 1.25% (v/v) COC so that the final spray solutions contained 1.25% (v/v) COC.
All stock solutions and applications solutions were visually inspected for compound compatibility prior to application. Spray solutions were applied to the soil with an overhead Mandel track sprayer equipped with a 8002E nozzles calibrated to deliver 187 L/ha over an application area of 0.503 m^2 at a spray height of 18 inches (46 cm) above average pot height. Control pots were sprayed in the same manner with the solvent blank.
The treated and control pots were placed in a greenhouse and top watered as needed. When required to ensure good germination and healthy plants, a fungicide treatment and/or other chemical or physical treatment was applied. The pots were maintained in a greenhouse with an approximate 14 hr photoperiod which was maintained at about 29° C. during the day and 26° C. during the night. […] After approximately 4 weeks, the condition of the test plants as compared with that of the untreated plants was determined visually and scored on a scale of 0 to 100 percent where 0 corresponds to no injury or growth inhibition and 100 corresponds to complete kill. […]

ECHCG = test: Postemergence foliar-applied weed control, direct seeded rice, greenhouse (Example I); format: in vivo, Echinochloa crusgalli (L.) Beauv.
ECHOR = test: In-water applied weed control, transplanted paddy rice, greenhouse (Example II); format: in vivo, Echinochloa oryzoides (Ard.) Fritsch
LEFCH [1] = test: Postemergence foliar-applied weed control, direct seeded rice, greenhouse (Example I); format: in vivo, Leptochloa chinensis (L.) Nees; conditions: g ae/ha Compound A Benzyl Ester+g ai/ha saflufenacil: r26 8.75+0, r27 17.5+0, r28 0+5, r29 0+10, r30 8.75+5, r31 17.5+5, r32 8.75+10, r33 17.5+10
LEFCH [2] = test: In-water applied weed control, transplanted paddy rice, greenhouse (Example II); format: in vivo, Leptochloa chinensis (L.) Nees
CYPRO = test: as above; format: in vivo, Cyperus rotundus L.

SMILES: COc1c(Cl)ccc(-c2nc(C(=O)OCc3ccccc3)c(Cl)c(N)c2F)c1F [Compound A Benzyl Ester, benzyl ester of 4-amino-3-chloro-5-fluoro-6-(4-chloro-2-fluoro-3-methoxy-phenyl)pyridine-2-carboxylic acid]
- Visual Weed Control (%) - 29 DAA XANST Obs (XANST; 16 g ae/ha alone): 0%
- Visual Weed Control (%) - 29 DAA XANST Obs (XANST; 32 g ae/ha alone): 5%
- Visual Weed Control (%) - 21 DAA ECHCG Obs (ECHCG; g ae/ha Compound A Benzyl Ester+g ai/ha carfentrazone-ethyl: r11 8.75+0, r12 0+3.5, r13 0+7, r14 0+14, r15 8.75+3.5, r16 8.75+7, r17 8.75+14): 55%
- Visual Weed Control (%) - 23 DAA ECHCG Obs (ECHCG; g ae/ha Compound A Benzyl Ester+g ai/ha oxyfluorfen (SC): r25 4.38+0, r26 0+90, r27 0+180, r28 0+360, r29 4.38+90, r30 4.38+180, r31 4.38+360): 40%
- Visual Weed Control (%) - 21 DAA ECHCG Obs (ECHCG; g ae/ha Compound A Benzyl Ester+g ai/ha pyraflufen-ethyl: r11 8+0, r12 0+5.3, r13 0+10.6, r14 8+5.3, r15 8+10.6): 45%
- Visual Weed Control (%) - 20 DAA ECHOR Obs (ECHOR; 4.38 g ae/ha alone): 10%
- Visual Weed Control (%) - 21 DAA ECHOR Obs (ECHOR; 8 g ae/ha alone): 20%
- Visual Weed Control (%) - 20 DAA ECHOR Obs (ECHOR; 8.75 g ae/ha alone): 15%
- Visual Weed Control (%) - 21 DAA ECHOR Obs (ECHOR; 8.75 g ae/ha alone): 25%
- Visual Weed Control (%) - 21 DAA ECHOR Obs (ECHOR; 16 g ae/ha alone): 45%
- Visual Weed Control (%) - 21 DAA ECHOR Obs (ECHOR; 17.5 g ae/ha alone): 60%
- Visual Weed Control (%) - 21 DAA ECHOR Obs (ECHOR; 32 g ae/ha alone): 60%
- Visual Weed Control (%) - 20 DAA LEFCH Obs (LEFCH [1]): 30% and 50%
- Visual Weed Control (%) - 20 DAA LEFCH Obs (LEFCH [2]; 4.38 g ae/ha alone): 0%
- Visual Weed Control (%) - 20 DAA LEFCH Obs (LEFCH [2]; 8.75 g ae/ha alone): 20%
- Visual Weed Control (%) - 20 DAA LEFCH Obs (LEFCH [2]; 17.5 g ae/ha alone): 30%
- Visual Weed Control (%) - 21 DAA CYPRO Obs (CYPRO; 4.38 g ae/ha alone): 30%
- Visual Weed Control (%) - 21 DAA CYPRO Obs (CYPRO; 8.75 g ae/ha alone): 60%
- Visual Weed Control (%) - 21 DAA CYPRO Obs (CYPRO; g ae/ha Compound A Benzyl Ester+g ai/ha oxyfluorfen (SC): r11 32+0, r12 0+135, r13 0+270, r14 32+135, r15 32+270): 90%
- Visual Weed Control (%) - 20 DAA CYPRO Obs (CYPRO; g ae/ha Compound A Benzyl Ester+g ai/ha pyraclonil: r19 4.38+0, r20 8.75+0, r21 0+45, r22 0+90, r23 4.38+45, r24 8.75+45, r25 4.38+90, r26 8.75+90): 20%
